According to US20050171102A1, “Semicarbazide derivatives for combating thromboembolic diseases” (priority 2002, published 2005):
Where a name gives a salt, the structure may show the parent alone.

What was measured:
FXa = FXa (Homo sapiens, UniProt P00742); assay: Factor Xa inhibition (FXa-IC50), Table 3 'Affinity to Receptors'
TF/FVIIa = TF/FVIIa (Homo sapiens, UniProt P08709); assay: TF/FVIIa inhibition (TF/FVIIa-IC50), Table 3 'Affinity to Receptors'
Sequence of TF/FVIIa (P08709 213-466 limits assumed): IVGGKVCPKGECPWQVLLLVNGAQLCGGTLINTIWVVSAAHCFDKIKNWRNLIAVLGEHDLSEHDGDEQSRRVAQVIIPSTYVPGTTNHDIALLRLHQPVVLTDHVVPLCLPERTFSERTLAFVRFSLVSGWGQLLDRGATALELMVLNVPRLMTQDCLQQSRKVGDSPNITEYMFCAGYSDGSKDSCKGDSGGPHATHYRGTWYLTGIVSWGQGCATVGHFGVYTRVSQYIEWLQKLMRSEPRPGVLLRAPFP
Sequence of TF/FVIIa (P08709 61-212 limits assumed): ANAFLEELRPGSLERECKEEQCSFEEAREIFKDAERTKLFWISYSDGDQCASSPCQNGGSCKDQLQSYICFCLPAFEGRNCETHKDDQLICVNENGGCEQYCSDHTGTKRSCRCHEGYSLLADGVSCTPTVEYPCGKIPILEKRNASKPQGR
Sequence of TF/FVIIa (P13726 33-295 partner): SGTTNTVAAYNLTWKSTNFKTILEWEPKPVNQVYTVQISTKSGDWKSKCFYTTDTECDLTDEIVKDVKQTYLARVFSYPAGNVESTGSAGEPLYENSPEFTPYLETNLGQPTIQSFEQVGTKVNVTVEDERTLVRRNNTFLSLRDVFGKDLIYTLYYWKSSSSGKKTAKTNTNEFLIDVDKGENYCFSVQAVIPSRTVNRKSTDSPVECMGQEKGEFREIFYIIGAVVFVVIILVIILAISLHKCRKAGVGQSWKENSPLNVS

Sequence of FXa (P00742 235-488 limits assumed): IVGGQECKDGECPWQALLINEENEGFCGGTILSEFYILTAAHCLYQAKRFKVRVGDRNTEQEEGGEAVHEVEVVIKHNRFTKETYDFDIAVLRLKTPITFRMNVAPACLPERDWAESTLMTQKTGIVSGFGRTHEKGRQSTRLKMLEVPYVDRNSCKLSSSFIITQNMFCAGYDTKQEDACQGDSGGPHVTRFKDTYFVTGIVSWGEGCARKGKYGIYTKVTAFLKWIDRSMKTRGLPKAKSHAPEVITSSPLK
Sequence of FXa (P00742 41-179 limits assumed): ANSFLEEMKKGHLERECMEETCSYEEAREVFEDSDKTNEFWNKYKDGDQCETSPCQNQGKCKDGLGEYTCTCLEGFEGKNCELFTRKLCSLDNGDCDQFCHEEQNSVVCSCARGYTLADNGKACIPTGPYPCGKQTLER

Row | SMILES | melting point [°C] | IC50 (FXa) [nM] | IC50 (TF/FVIIa) [nM]
1 | Cc1cc(NC(=O)NN(c2ccccc2)c2cccc(C#N)c2)ccc1N1CCOCC1 [5′, 1-(3-cyanophenyl)-4-[3-methyl-4-(morpholin-4-yl)phenyl]-1-phenylsemicarbazide] | 115 to 116 |  | 
2 | N#Cc1cccc(NN(C(=O)Nc2ccc(N3CCCCC3=O)cc2)c2ccccc2)c1 [5″, 1-(3-cyanophenyl)-4-[4-(2-oxopiperidin-1-yl)phenyl]-2-phenylsemicarbazide] | 239 to 241 |  | 
3 | N=C(N)c1cccc(NN(C(=O)Nc2ccc(N3CCOCC3=O)c(Cl)c2)c2ccccc2)c1 [Compound 4.AA, 1-(3-amidinophenyl)-4-[3-chloro-4-(3-oxomorpholin-4-yl)phenyl]-2-phenylsemicarbazide, hydrochloride] |  | 20 | 27
4 | Cc1cc(NC(=O)N(Nc2cccc(C(=N)N)c2)c2ccccc2)ccc1N1CCCCC1=O.Cl [Compound 11, 1-(3-amidinophenyl)-4-[3-methyl-4-(2-oxopiperidin-1-yl)phenyl]-2-phenylsemicarbazide, hydrochloride] | > 300 | 8.6 | 5.1

The next lines start with the values.

Row | melting point [°C] | IC50 (FXa) [nM] | IC50 (TF/FVIIa) [nM] | SMILES
5 | 172 to 173 |  |  | Cc1cc(NC(=O)NN(c2ccccc2)c2cccc(CN)c2)ccc1N1CCCCC1=O.Cl
6 | 161 to 162 |  |  | Cc1cc(NC(=O)NN(c2ccccc2)c2cccc(C#N)c2)ccc1N1CCCCC1=O [Compound 6, 1-(3-cyanophenyl)-4-[3-methyl-4-(2-oxopiperidin-1-yl)phenyl]-1-phenylsemicarbazide]
7 | > 300 | 16 | 9.8 | Cc1cc(NC(=O)NN(c2ccccc2)c2cccc(C(=N)N)c2)ccc1N1CCCCC1=O.Cl [Compound 10, 1-(3-amidinophenyl)-4-[3-methyl-4-(2-oxopiperidin-1-yl)phenyl]-1-phenylsemicarbazide, hydrochloride]
8 | 95 to 97 | 130 | 170 | Cc1cc(NC(=O)N(Nc2cccc(CN)c2)c2ccccc2)ccc1N1CCCCC1=O.Cl [Compound 13, 1-(3-aminomethylphenyl)-4-[3-methyl-4-(2-oxopiperidin-1-yl)phenyl]-2-phenylsemicarbazide, hydrochloride]
